Read-outs that look alike come from different tables or passages of the source.

The values below come from article PMC3713097 (Chemical research in toxicology, 2013).

Series [1] addresses T1, P450 1B1 (Homo sapiens, UniProt Q16678, L432V).
T1 sequence (Q16678 1-543 L432V): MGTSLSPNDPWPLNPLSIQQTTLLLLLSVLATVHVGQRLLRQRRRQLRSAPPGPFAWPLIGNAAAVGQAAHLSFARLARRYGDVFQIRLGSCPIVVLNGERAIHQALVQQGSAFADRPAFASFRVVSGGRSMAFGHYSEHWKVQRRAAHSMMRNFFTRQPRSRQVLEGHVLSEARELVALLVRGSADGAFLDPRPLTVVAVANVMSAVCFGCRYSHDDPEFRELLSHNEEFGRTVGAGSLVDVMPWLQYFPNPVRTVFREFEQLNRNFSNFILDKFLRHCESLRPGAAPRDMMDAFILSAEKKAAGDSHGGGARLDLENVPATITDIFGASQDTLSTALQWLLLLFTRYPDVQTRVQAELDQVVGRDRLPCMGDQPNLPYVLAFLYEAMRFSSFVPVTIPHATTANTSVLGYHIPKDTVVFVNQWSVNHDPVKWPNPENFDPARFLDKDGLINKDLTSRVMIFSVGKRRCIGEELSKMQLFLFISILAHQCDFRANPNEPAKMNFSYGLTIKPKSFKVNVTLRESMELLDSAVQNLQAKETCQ
Briefly: Spectral binding titration with purified P450 1B1.

In series [2] the target is T2, P450 2A13 (Homo sapiens, UniProt Q16696).
T2 sequence (Q16696 with tags, fused parts or gaps limits assumed): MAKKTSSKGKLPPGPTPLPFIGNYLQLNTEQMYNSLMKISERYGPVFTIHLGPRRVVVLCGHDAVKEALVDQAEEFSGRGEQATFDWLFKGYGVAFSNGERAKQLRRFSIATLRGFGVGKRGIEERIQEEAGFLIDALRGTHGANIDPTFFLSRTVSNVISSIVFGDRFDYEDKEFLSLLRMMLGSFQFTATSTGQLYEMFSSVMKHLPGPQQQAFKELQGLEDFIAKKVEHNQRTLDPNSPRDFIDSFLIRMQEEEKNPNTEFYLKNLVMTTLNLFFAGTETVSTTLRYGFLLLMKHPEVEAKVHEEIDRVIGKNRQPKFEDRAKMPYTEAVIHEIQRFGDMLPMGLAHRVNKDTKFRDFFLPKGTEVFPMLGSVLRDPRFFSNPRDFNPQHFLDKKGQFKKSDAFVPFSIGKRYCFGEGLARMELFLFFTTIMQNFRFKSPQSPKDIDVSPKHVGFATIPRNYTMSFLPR
The series is described as follows: Spectral binding titration with purified P450 2A13.

For series [3], the target named is T1, P450 1B1. To be noted: 10 nM P450, 2.5 µM procarcinogen, means ± range of duplicate experiments.
The target of series [4] is T3, human P450 2A13 (Homo sapiens, UniProt Q16696).
T3 sequence (Q16696 31-494 limits assumed): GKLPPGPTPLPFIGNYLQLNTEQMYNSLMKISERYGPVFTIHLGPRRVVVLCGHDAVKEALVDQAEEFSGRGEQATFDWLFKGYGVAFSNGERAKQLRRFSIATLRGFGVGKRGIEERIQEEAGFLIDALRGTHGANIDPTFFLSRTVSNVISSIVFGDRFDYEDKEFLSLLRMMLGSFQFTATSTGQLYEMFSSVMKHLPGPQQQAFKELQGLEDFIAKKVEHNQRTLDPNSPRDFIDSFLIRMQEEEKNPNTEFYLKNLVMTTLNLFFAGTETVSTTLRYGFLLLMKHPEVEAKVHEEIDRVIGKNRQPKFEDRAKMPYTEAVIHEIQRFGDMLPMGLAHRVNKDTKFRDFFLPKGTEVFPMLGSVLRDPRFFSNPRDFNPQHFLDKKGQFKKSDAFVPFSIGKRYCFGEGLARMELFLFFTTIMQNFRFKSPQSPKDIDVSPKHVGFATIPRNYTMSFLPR
As to conditions: 10 nM P450, 2.5 µM procarcinogen, means ± range of duplicate experiments.

The target in series [5] is T4, P450 2A6 (Homo sapiens, UniProt P11509).
T4 sequence (P11509 1-494): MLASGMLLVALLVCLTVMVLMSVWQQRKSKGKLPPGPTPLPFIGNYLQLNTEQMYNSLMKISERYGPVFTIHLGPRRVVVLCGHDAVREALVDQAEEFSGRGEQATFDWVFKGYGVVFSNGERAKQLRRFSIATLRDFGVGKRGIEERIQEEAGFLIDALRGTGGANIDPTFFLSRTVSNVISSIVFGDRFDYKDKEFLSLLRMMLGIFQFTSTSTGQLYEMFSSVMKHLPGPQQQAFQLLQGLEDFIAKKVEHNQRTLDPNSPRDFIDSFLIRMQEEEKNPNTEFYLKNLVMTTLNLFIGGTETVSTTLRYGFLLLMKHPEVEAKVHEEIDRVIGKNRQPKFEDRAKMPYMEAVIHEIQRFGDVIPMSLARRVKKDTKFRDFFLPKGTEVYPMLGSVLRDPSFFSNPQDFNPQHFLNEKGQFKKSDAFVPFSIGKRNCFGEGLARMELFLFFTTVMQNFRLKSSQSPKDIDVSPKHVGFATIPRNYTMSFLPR
To be noted: 10 nM P450, 2.5 µM procarcinogen, means ± range of duplicate experiments.

Series [6] addresses T4, P450 2A6. The series is described as follows: Spectral binding titration with purified P450 2A6.
The mark [7] stands for this setting: P450 1B1, Reverse Type I spectra.
Where [8] appears, read: P450 1B1, Reverse Type I spectra, ± SE.
Setting [9] is: P450 2A13, Type I spectra, ± SE.

As to `Cc1cc2ccccc2c2ccc3ccccc3c12` [5-methylchrysene], the Kd in series [1] is 6.9 ± 2.4 µM; in series [2], over 20 µM. Further, the “ΔAmax/ Ks” value in series [1] (setting [7]) stood at 0.0064. Besides, the ΔAmax in series [1] (setting [8]) is listed as 0.044 ± 0.008.
Take `CC(=O)Nc1ccc2c(c1)Cc1ccccc1-2` [2-AAF, 2-acetamidofluorene]: the “activation of procarcinogens umu gene expression” value (“activation” for short) in series [3], in series [4] and in series [5] was under 10 units/min/nmol P450 each time. Also, the Kd in series [1] was 20 ± 7.8 µM. For the same compound, the “ΔAmax/ Ks” value in series [1] (setting [7]) is listed as 0.0018. The same compound gave a ΔAmax in series [1] (setting [8]) of 0.035 ± 0.009.
`Cc1cc2ccccc2c2ccc3c(c12)C=CC(O)C3O` (stereo not drawn) [5MeCh-1,2-diol, 1,2-dihydroxy-1,2-dihydro-5-methylchrysene]: the “activation” value in series [3] was 2600 ± 180 units/min/nmol P450; in series [4], 86 ± 15 units/min/nmol P450; in series [5], 52 ± 11 units/min/nmol P450. The Kd in series [1] and in series [2] was over 20 µM in each case.
The compound `Cc1c2c(c(C)c3ccccc13)C(O)C(O)c1ccccc1-2` (stereo not drawn) [7,12-DMBA-5,6-diol, 5,6-dihydroxy-5,6-dihydro-7,12-dimethylbenz[a]anthracene] returned a Kd in series [1] of 38 ± 3.7 µM. The “ΔAmax/ Ks” value in series [1] (setting [7]) came out at 0.0012. In series [1] (setting [8]), the ΔAmax was 0.044 ± 0.003.
For the compound `Nc1ccc2c(c1)Cc1ccccc1-2` [2-AF, 2-aminofluorene], the Kd was over 20 µM in series [6], 4.6 ± 1.3 µM in series [1] and over 20 µM in series [2].
Consider `Cn1c(N)nc2c3cccnc3ccc21` [IQ, 2-amino-3-methylimiidazo[4,5-f]quinoline], for which the entries for the “activation” value in series [3], in series [4] and in series [5] were 220 ± 29 units/min/nmol P450, 430 ± 40 units/min/nmol P450 and 75 ± 11 units/min/nmol P450, respectively.
`c1ccc2c(c1)cc1ccc3cccc4ccc2c1c34` [B[a]P, benzo[a]pyrene]: the Kd in series [6], in series [1] and in series [2] was over 20 µM in each case.
On to `OC1C=C2c3ccccc3-c3cccc(c32)C1O` (stereo not drawn) [FA-2,3-diol, 2,3-dihydroxy-2,3-dihydrofluoranthene], for which the “activation” value in series [3] stood at 30 ± 11 units/min/nmol P450; in series [4], 88 ± 13 units/min/nmol P450; in series [5], 36 ± 8 units/min/nmol P450. Moreover, the values for the Kd in series [1] and in series [2] were 7.4 ± 1.3 µM and 0.86 ± 0.16 µM, respectively. Moreover, the “ΔAmax/ Ks” value in series [1] (setting [7]) is reported as 0.0058; in series [2] (P450 2A13, Type I spectra) it was 0.060. Besides, the ΔAmax in series [1] (setting [8]) amounted to 0.043 ± 0.003; in series [2] (setting [9]), 0.052 ± 0.003.
Consider aflatoxin B1 [AFB1], for which the Kd in series [6] (read-out: Ks, pH 7.4) was over 20 µM; in series [2] (read-out: Ks, pH 7.4) it was over 20 µM.
Turning to `O=[N+]([O-])c1ccc2ccc3cccc4ccc1c2c34` [1-nitropyrene], the “activation” value in series [3], in series [4] and in series [5] was under 10 units/min/nmol P450 in each case. Moreover, the Kd is over 20 µM in series [6]; 1.4 ± 0.001 µM in series [1] (human, pH 7.4); 0.23 ± 0.08 µM in series [2]. Besides, the “ΔAmax/ Ks” value in series [1] (setting [7]) worked out at 0.026; in series [2] (P450 2A13, Type I spectra) it was 0.24. Also, the results for the ΔAmax in series [1] (setting [8]) and in series [2] (setting [9]) were 0.037 ± 0.001 and 0.055 ± 0.004, respectively.
`OC1C=Cc2c(ccc3c4ccccc4c4ccccc4c23)C1O` (stereo not drawn) [B[g]C-11,12-diol, 11,12-dihydroxy-11,12-dihydrobenzo[g]chrysene]: the results for the “activation” value in series [3], in series [4] and in series [5] were 207 ± 25 units/min/nmol P450, under 10 units/min/nmol P450 and under 10 units/min/nmol P450, respectively.
In the case of `Nc1ccc2cc3ccccc3cc2c1` [2-AA, 2-aminoanthracene], the “activation” value in series [3] worked out at 1900 ± 210 units/min/nmol P450; in series [4] it was 560 ± 40 units/min/nmol P450; in series [5], 1200 ± 89 units/min/nmol P450. Also, the results for the Kd in series [6], in series [1] and in series [2] were over 20 µM, 33 ± 36 µM and over 20 µM, respectively. Also, the “ΔAmax/ Ks” value in series [1] (setting [7]) came out at 0.0026. In addition, the ΔAmax in series [1] (setting [8]) amounted to 0.085 ± 0.076.
On to `OC1C=Cc2c(ccc3ccc4ccccc4c23)C1O` (stereo not drawn) [B[c]Phe-3,4-diol, 3,4-dihydroxy-3,4-dihydrobenzo[c]phenanthrene], for which the “activation” value in series [3] worked out at 140 ± 21 units/min/nmol P450; in series [4], 45 ± 8 units/min/nmol P450; in series [5], 33 ± 10 units/min/nmol P450. The Kd in series [1] and in series [2] was over 20 µM in each case.
As for `c1ccc2c(c1)ccc1c3ccccc3ccc21` [chrysene], the Kd in series [1] and in series [2] was over 20 µM in each case.
On to `c1ccc2cc3c(ccc4ccccc43)cc2c1` [B[a]A, benz[a]anthracene], for which the Kd was over 20 µM in series [1] (read-out: Ks, P450 1B1, Reverse Type I spectra, 1.0 µM P450, pH 7.4, ± SE) and over 20 µM in series [2] (read-out: Ks, P450 2A13, Type I spectra, 1.0 µM P450, pH 7.4, ± SE).
In the case of `OC1C=Cc2c(ccc3c2ccc2ccccc23)C1O` (stereo not drawn) [chrysene-1,2-diol, 1,2-dihydroxy-1,2-dihydrochrysene], the “activation” value is 220 ± 19 units/min/nmol P450 in series [3], under 10 units/min/nmol P450 in series [4] and under 10 units/min/nmol P450 in series [5]. Moreover, the Kd in series [1] and in series [2] was over 20 µM each time.
As to `Cn1c(N)nc2ncc(-c3ccccc3)cc21` [PhIP, 2-amino-1-methyl-6-phenylimidazo[4,5-b]pyridine], the “activation” value in series [3], in series [4] and in series [5] was under 10 units/min/nmol P450 each time. The compound further gave a Kd in series [1] of over 20 µM.
In series [1], `OC1c2cccc3ccc4c5ccccc5cc(c4c23)C1O` (stereo not drawn) [B[a]P-4,5-diol, 4,5-dihydroxy-4,5-dihydrobenzo[a]pyrene] displayed a Kd of 23 ± 10 µM.
